Measured values reported in PubChem BioAssay (NCI).
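The compound was tested at five concentrations on cells cultured in 96-well plates, with a 48-hour exposure period. The concentration for 50% growth inhibition is given as GI50. TGI marks complete inhibition of growth.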

What was measured:
Experiment in all cases: NCI anticancer screen, dose series, 48 h
[1] = system: K-562 leukemia
[2] = system: SN12C renal
[3] = system: M14 melanoma
[4] = system: PC-3 prostate
[5] = system: DU-145 prostate
[6] = system: IGROV1 ovarian
[7] = system: CAKI-1 renal
[8] = system: U251 CNS
[9] = system: NCI-H460 lung
[10] = system: MDA-MB-435
[11] = system: SK-OV-3 ovarian
[12] = system: SNB-19 CNS
[13] = system: HOP-92 NSCLC
[14] = system: HS 578T breast
[15] = system: HOP-62 NSCLC
[16] = system: UO-31 renal
[17] = system: MDA-MB-231 breast
[18] = system: EKVX NSCLC
[19] = system: KM12 colon
[20] = system: NCI/ADR-RES ovarian
[21] = system: UACC-62 melanoma
[22] = system: TK-10 renal
[23] = system: CCRF-CEM leukemia
[24] = system: UACC-257 melanoma
[25] = system: SR leukemia
[26] = system: OVCAR-8 ovarian
[27] = system: MCF7 breast
[28] = system: NCI-H522 lung
[29] = system: SF-539 CNS
[30] = system: NCI-H226 lung
[31] = system: A549 NSCLC
[32] = system: SK-MEL-2 melanoma
[33] = system: SK-MEL-28 melanoma
[34] = system: RPMI-8226 leukemia
[35] = system: ACHN renal
[36] = system: HCC-2998 colon
[37] = system: SK-MEL-5 melanoma
[38] = system: SW-620 colon
[39] = system: OVCAR-4 ovarian
[40] = system: OVCAR-3 ovarian
[41] = system: SF-268 CNS
[42] = system: 786-0 renal
[43] = system: MOLT-4 leukemia
[44] = system: HCT-116 colon
[45] = system: COLO 205 colon
[46] = system: NCI-H23 lung
[47] = system: T-47D breast
[48] = system: HL-60(TB) leukemia
[49] = system: LOX IMVI melanoma
[50] = system: MALME-3M melanoma
[51] = system: BT-549 breast
[52] = system: RXF 393 renal
[53] = system: SF-295 CNS
[54] = system: HT29 colon
[55] = system: HCT-15 colon
[56] = system: SNB-75 CNS
[57] = system: A498 renal
[58] = system: OVCAR-5 ovarian

For `O=C(O)c1ccc(S(=O)(=O)Nc2ccc3oc4c(c3c2)C(=O)CCC4)cc1`, the GI50 [1] was over 100 µM, the TGI [1] was over 100 µM and the GI50 [2] was over 100 µM. For the same compound, the TGI [2] was over 100 µM, the GI50 [3] was over 100 µM and the TGI [3] was over 100 µM. The GI50 [4] was over 100 µM, the TGI [4] was over 100 µM and the GI50 [5] was over 100 µM. It also gave a TGI [5] of over 100 µM, a GI50 [6] of over 100 µM and a TGI [6] of over 100 µM. It also gave a GI50 [7] of over 100 µM, a TGI [7] of over 100 µM and a GI50 [8] of over 100 µM. For the same compound, the TGI [8] was over 100 µM, the GI50 [9] was over 100 µM and the TGI [9] was over 100 µM. It also gave a GI50 [10] of over 100 µM, a TGI [10] of over 100 µM and a GI50 [11] of over 100 µM. It also gave a TGI [11] of over 100 µM, a GI50 [12] of over 100 µM and a TGI [12] of over 100 µM. The GI50 [13] was over 100 µM, the TGI [13] was over 100 µM and the GI50 [14] was over 100 µM. It also gave a TGI [14] of over 100 µM, a GI50 [15] of over 100 µM and a TGI [15] of over 100 µM. The GI50 [16] was over 100 µM, the TGI [16] was over 100 µM and the GI50 [17] was over 100 µM. For the same compound, the TGI [17] was over 100 µM, the GI50 [18] was over 100 µM and the TGI [18] was over 100 µM. For the same compound, the GI50 [19] was over 100 µM, the TGI [19] was over 100 µM and the GI50 [20] was over 100 µM. For the same compound, the TGI [20] was over 100 µM, the GI50 [21] was over 100 µM and the TGI [21] was over 100 µM. It also gave a GI50 [22] of over 100 µM, a TGI [22] of over 100 µM and a GI50 [23] of over 100 µM. The TGI [23] was over 100 µM, the GI50 [24] was over 100 µM and the TGI [24] was over 100 µM. For the same compound, the GI50 [25] was over 100 µM, the TGI [25] was over 100 µM and the GI50 [26] was over 100 µM. The TGI [26] was over 100 µM, the GI50 [27] was over 100 µM and the TGI [27] was over 100 µM. For the same compound, the GI50 [28] was over 100 µM, the TGI [28] was over 100 µM and the GI50 [29] was over 100 µM. For the same compound, the TGI [29] was over 100 µM, the GI50 [30] was over 100 µM and the TGI [30] was over 100 µM. The GI50 [31] was over 100 µM, the TGI [31] was over 100 µM and the GI50 [32] was over 100 µM. It also gave a TGI [32] of over 100 µM, a GI50 [33] of over 100 µM and a TGI [33] of over 100 µM. It also gave a GI50 [34] of over 100 µM, a TGI [34] of over 100 µM and a GI50 [35] of over 100 µM. For the same compound, the TGI [35] was over 100 µM, the GI50 [36] was over 100 µM and the TGI [36] was over 100 µM. The GI50 [37] was over 100 µM, the TGI [37] was over 100 µM and the GI50 [38] was over 100 µM. The TGI [38] was over 100 µM, the GI50 [39] was over 100 µM and the TGI [39] was over 100 µM. For the same compound, the GI50 [40] was over 100 µM, the TGI [40] was over 100 µM and the GI50 [41] was over 100 µM. For the same compound, the TGI [41] was over 100 µM, the GI50 [42] was over 100 µM and the TGI [42] was over 100 µM. For the same compound, the GI50 [43] was over 100 µM, the TGI [43] was over 100 µM and the GI50 [44] was over 100 µM. For the same compound, the TGI [44] was over 100 µM, the GI50 [45] was over 100 µM and the TGI [45] was over 100 µM. For the same compound, the GI50 [46] was over 100 µM, the TGI [46] was over 100 µM and the GI50 [47] was over 100 µM. For the same compound, the TGI [47] was over 100 µM, the GI50 [48] was over 100 µM and the TGI [48] was over 100 µM. For the same compound, the GI50 [49] was over 100 µM, the TGI [49] was over 100 µM and the GI50 [50] was over 100 µM. The TGI [50] was over 100 µM, the GI50 [51] was over 100 µM and the TGI [51] was over 100 µM. For the same compound, the GI50 [52] was over 100 µM, the TGI [52] was over 100 µM and the GI50 [53] was over 100 µM. The TGI [53] was over 100 µM, the GI50 [54] was over 100 µM and the TGI [54] was over 100 µM. For the same compound, the GI50 [55] was over 100 µM, the TGI [55] was over 100 µM and the GI50 [56] was over 100 µM. It also gave a TGI [56] of over 100 µM, a GI50 [57] of over 100 µM and a TGI [57] of over 100 µM. For the same compound, the GI50 [58] was over 100 µM and the TGI [58] was over 100 µM.
